Species: Rattus norvegicus
Assay type: toxicity, organism-based, Sprague-Dawley
Conditions: in vivo, po, route oral GAVAGE, […]; for ABSOLUTE EOSINOPHIL / ABSOLUTE LYMPHOCYTE / ABSOLUTE MONOCYTE / ABSOLUTE SEGMENTED NEUTROPHIL / BASOPHIL / EOSINOPHIL / ERYTHROCYTE COUNT / HEMATOCRIT / HEMOGLOBIN / LEUKOCYTE COUNT / LYMPHOCYTE / MEAN CORPUSCULAR HEMOGLOBIN / MEAN CORPUSCULAR HEMOGLOBIN CONCENTRATION / MEAN CORPUSCULAR VOLUME / MONOCYTE / NEUTROPHIL / NUCLEATED RED BLOOD CELLS / PLATELET COUNT: tissue Blood; for ALANINE AMINOTRANSFERASE / ALBUMIN / ALKALINE PHOSPHATASE / ASPARTATE AMINOTRANSFERASE / BLOOD UREA NITROGEN / CARBON DIOXIDE / CHLORIDE / CHOLESTEROL / CREATINE PHOSPHOKINASE / CREATININE / GLUCOSE / LACTATE DEHYDROGENASE / LIPASE / PHOSPHORUS / POTASSIUM / SODIUM / TOTAL BILIRUBIN / TOTAL PROTEIN / URIC ACID: tissue Plasma
[1] = 30 mg/kg, 24 h, dose level Low, time 1 day
[2] = 60 mg/kg, 6 h, dose level High, time 0.25 day
[3] = 60 mg/kg, 24 h, dose level High, time 1 day

Description: DrugMatrix - Regimen: Single

In the case of `S=C=Nc1cccc2ccccc12` [1-NAPHTHYLISOTHIOCYANATE], the “ABSOLUTE EOSINOPHIL” value [1] was 0 CELLS/uL, the “ABSOLUTE LYMPHOCYTE” value [1] was 8784 CELLS/uL and the “ABSOLUTE MONOCYTE” value [1] was 359.5 CELLS/uL. The “ABSOLUTE SEGMENTED NEUTROPHIL” value [1] was 2189.83 CELLS/uL, the BASOPHIL [1] was 0% and the EOSINOPHIL [1] was 0%. For the same molecule, the “ERYTHROCYTE COUNT” value [1] was 5.45 x10E6/uL, the HEMATOCRIT [1] was 34.5% and the HEMOGLOBIN [1] was 13.67 G/DL. The “LEUKOCYTE COUNT” value [1] was 11.33 x10E3/uL, the LYMPHOCYTE [1] was 78.33% and the “MEAN CORPUSCULAR HEMOGLOBIN” value [1] was 25.1 pg. The “MEAN CORPUSCULAR HEMOGLOBIN CONCENTRATION” value [1] was 39.62 G/DL, the “MEAN CORPUSCULAR VOLUME” value [1] was 63.35 fL and the MONOCYTE [1] was 2.83%. For the same molecule, the NEUTROPHIL [1] was 18.83%, the “NUCLEATED RED BLOOD CELLS” value [1] was 0 /100WBC and the “PLATELET COUNT” value [1] was 1092.83 x10E3/uL. For the same molecule, the “ALANINE AMINOTRANSFERASE” value [1] was 122 u/L, the ALBUMIN [1] was 3.92 G/DL and the “ALKALINE PHOSPHATASE” value [1] was 386.33 u/L. The “ASPARTATE AMINOTRANSFERASE” value [1] was 211 u/L, the “BLOOD UREA NITROGEN” value [1] was 11.67 mg/dL and the “CARBON DIOXIDE” value [1] was 35.83 mmol/L. For the same molecule, the CHLORIDE [1] was 97.33 MEQ/L, the CHOLESTEROL [1] was 83.5 mg/dL and the “CREATINE PHOSPHOKINASE” value [1] was 327.33 u/L. The CREATININE [1] was 0.3 mg/dL, the GLUCOSE [1] was 139.33 mg/dL and the “LACTATE DEHYDROGENASE” value [1] was 171 u/L. For the same molecule, the LIPASE [1] was 9.33 u/L, the PHOSPHORUS [1] was 9.87 mg/dL and the POTASSIUM [1] was 4.44 MEQ/L. For the same molecule, the SODIUM [1] was 145.25 MEQ/L, the “TOTAL BILIRUBIN” value [1] was 1.02 mg/dL and the “TOTAL PROTEIN” value [1] was 6.05 G/DL. For the same molecule, the “URIC ACID” value [1] was 0.5 mg/dL, the “ABSOLUTE EOSINOPHIL” value [2] was 98.5 CELLS/uL and the “ABSOLUTE LYMPHOCYTE” value [2] was 11852.33 CELLS/uL. The “ABSOLUTE MONOCYTE” value [2] was 375.83 CELLS/uL, the “ABSOLUTE SEGMENTED NEUTROPHIL” value [2] was 1556.67 CELLS/uL and the BASOPHIL [2] was 0%. The EOSINOPHIL [2] was 0.67%, the “ERYTHROCYTE COUNT” value [2] was 5.41 x10E6/uL and the HEMATOCRIT [2] was 36.93%. The HEMOGLOBIN [2] was 13.93 G/DL, the “LEUKOCYTE COUNT” value [2] was 13.88 x10E3/uL and the LYMPHOCYTE [2] was 84.83%. For the same molecule, the “MEAN CORPUSCULAR HEMOGLOBIN” value [2] was 25.75 pg, the “MEAN CORPUSCULAR HEMOGLOBIN CONCENTRATION” value [2] was 37.73 G/DL and the “MEAN CORPUSCULAR VOLUME” value [2] was 68.25 fL. The MONOCYTE [2] was 2.67%, the NEUTROPHIL [2] was 11.83% and the “NUCLEATED RED BLOOD CELLS” value [2] was 0 /100WBC. For the same molecule, the “PLATELET COUNT” value [2] was 1029 x10E3/uL, the “ALANINE AMINOTRANSFERASE” value [2] was 53.6 u/L and the ALBUMIN [2] was 4.36 G/DL. The “ALKALINE PHOSPHATASE” value [2] was 315.4 u/L, the “ASPARTATE AMINOTRANSFERASE” value [2] was 106 u/L and the “BLOOD UREA NITROGEN” value [2] was 9.8 mg/dL. The “CARBON DIOXIDE” value [2] was 17.2 mmol/L, the CHLORIDE [2] was 104.6 MEQ/L and the CHOLESTEROL [2] was 74.6 mg/dL. For the same molecule, the “CREATINE PHOSPHOKINASE” value [2] was 475 u/L, the CREATININE [2] was 0.21 mg/dL and the GLUCOSE [2] was 258.8 mg/dL. For the same molecule, the “LACTATE DEHYDROGENASE” value [2] was 229.4 u/L, the LIPASE [2] was 11 u/L and the PHOSPHORUS [2] was 16.5 mg/dL. For the same molecule, the POTASSIUM [2] was 5.82 MEQ/L, the SODIUM [2] was 145.04 MEQ/L and the “TOTAL BILIRUBIN” value [2] was 0.22 mg/dL. The “TOTAL PROTEIN” value [2] was 5.82 G/DL, the “URIC ACID” value [2] was 2.54 mg/dL and the “ABSOLUTE EOSINOPHIL” value [3] was 30 CELLS/uL. For the same molecule, the “ABSOLUTE LYMPHOCYTE” value [3] was 8567.5 CELLS/uL, the “ABSOLUTE MONOCYTE” value [3] was 316 CELLS/uL and the “ABSOLUTE SEGMENTED NEUTROPHIL” value [3] was 2953.17 CELLS/uL. The BASOPHIL [3] was 0%, the EOSINOPHIL [3] was 0.33% and the “ERYTHROCYTE COUNT” value [3] was 5.57 x10E6/uL. The HEMATOCRIT [3] was 34.8%, the HEMOGLOBIN [3] was 13.72 G/DL and the “LEUKOCYTE COUNT” value [3] was 11.87 x10E3/uL. The LYMPHOCYTE [3] was 71.17%, the “MEAN CORPUSCULAR HEMOGLOBIN” value [3] was 24.67 pg and the “MEAN CORPUSCULAR HEMOGLOBIN CONCENTRATION” value [3] was 39.42 G/DL. For the same molecule, the “MEAN CORPUSCULAR VOLUME” value [3] was 62.55 fL, the MONOCYTE [3] was 2.67% and the NEUTROPHIL [3] was 25.83%. The “NUCLEATED RED BLOOD CELLS” value [3] was 0 /100WBC, the “PLATELET COUNT” value [3] was 1101.5 x10E3/uL and the “ALANINE AMINOTRANSFERASE” value [3] was 142.33 u/L. For the same molecule, the ALBUMIN [3] was 3.88 G/DL, the “ALKALINE PHOSPHATASE” value [3] was 513.83 u/L and the “ASPARTATE AMINOTRANSFERASE” value [3] was 288 u/L. For the same molecule, the “BLOOD UREA NITROGEN” value [3] was 11.17 mg/dL, the “CARBON DIOXIDE” value [3] was 34.17 mmol/L and the CHLORIDE [3] was 95.83 MEQ/L. For the same molecule, the CHOLESTEROL [3] was 118 mg/dL, the “CREATINE PHOSPHOKINASE” value [3] was 254.17 u/L and the CREATININE [3] was 0.34 mg/dL. The GLUCOSE [3] was 133.33 mg/dL, the “LACTATE DEHYDROGENASE” value [3] was 241.83 u/L and the LIPASE [3] was 80.33 u/L. For the same molecule, the PHOSPHORUS [3] was 10.95 mg/dL, the POTASSIUM [3] was 3.66 MEQ/L and the SODIUM [3] was 144.63 MEQ/L. For the same molecule, the “TOTAL BILIRUBIN” value [3] was 2.2 mg/dL, the “TOTAL PROTEIN” value [3] was 6.13 G/DL and the “URIC ACID” value [3] was 0.45 mg/dL.

— ChEMBL document CHEMBL3885881, “DrugMatrix”
